From patent US9120770B2, “Substituted pyridine and pyrazine compounds as PDE4 inhibitors” (DART NEUROSCIENCE (CAYMAN) LTD., priority 2013, dated 2015)

These compounds were tested against PDE4D3 (Homo sapiens, UniProt Q08499).
PDE4D3, sequence (Q08499 1-673 isoform Q08499-2): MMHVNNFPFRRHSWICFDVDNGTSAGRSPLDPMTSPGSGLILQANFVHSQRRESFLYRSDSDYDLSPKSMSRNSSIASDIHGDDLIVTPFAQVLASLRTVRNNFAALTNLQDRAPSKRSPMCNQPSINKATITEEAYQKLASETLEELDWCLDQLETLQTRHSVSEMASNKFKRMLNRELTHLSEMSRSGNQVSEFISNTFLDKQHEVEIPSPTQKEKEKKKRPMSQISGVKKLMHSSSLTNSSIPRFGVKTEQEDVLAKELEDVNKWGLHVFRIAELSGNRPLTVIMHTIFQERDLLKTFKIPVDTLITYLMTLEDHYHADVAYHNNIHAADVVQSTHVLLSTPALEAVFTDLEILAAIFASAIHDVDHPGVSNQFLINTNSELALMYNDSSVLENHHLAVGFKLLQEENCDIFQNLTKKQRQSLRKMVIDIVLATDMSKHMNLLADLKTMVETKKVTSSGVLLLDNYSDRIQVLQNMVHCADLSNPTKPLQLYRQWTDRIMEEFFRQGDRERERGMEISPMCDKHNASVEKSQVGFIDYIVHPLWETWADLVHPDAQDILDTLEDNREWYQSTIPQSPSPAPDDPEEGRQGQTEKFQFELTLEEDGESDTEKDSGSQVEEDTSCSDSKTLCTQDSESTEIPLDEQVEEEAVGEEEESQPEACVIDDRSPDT

Which EC50 does the source give for `COc1ncc(Cn2cncn2)cc1-c1cccc(OC(F)(F)F)c1` [Example 137, 2-Methoxy-5-(1H-1,2,4-triazol-1-ylmethyl)-3-[3-(trifluoromethoxy)phenyl]pyridine] here?
Its EC50 is 100 to 1000 nM.

With `COc1ncc(Cn2cnnc2C)cc1-c1cccc(Cl)c1` [Example 138, 3-(3-Chlorophenyl)-2-methoxy-5-[(3-methyl-4H-1,2,4-triazol-4-yl)methyl]pyridine] as the compound, how does the EC50 read?
The EC50 was 1000 to 10000 nM.

For `COc1ncc(Cn2cncn2)cc1-c1cc(F)cc(F)c1` [Example 139, 3-(3,5-Difluorophenyl)-2-methoxy-5-(1H-1,2,4-triazol-1-ylmethyl)pyridine], which EC50 is on record?
Its EC50 is 100 to 1000 nM.

`COC(=O)c1ncnn1Cc1cnc(OC)c(-c2cccc(Cl)c2)c1` [Example 140, Methyl 1-{[5-(3-chlorophenyl)-6-methoxypyridin-3-yl]methyl}-1H-1,2,4-triazole-5-carboxylate] was tested. Which EC50 did it give?
Its EC50 is > 10000 nM.

For `COC(=O)c1ncn(Cc2cnc(OC)c(-c3cccc(Cl)c3)c2)n1` [Example 141, Methyl 1-{[5-(3-chlorophenyl)-6-methoxypyridin-3-yl]methyl}-1H-1,2,4-triazole-3-carboxylate], which EC50 is on record?
The EC50 was 100 to 1000 nM.

For `COc1ncc(Cn2cncn2)cc1-c1cc(Cl)cs1` [Example 142, 3-(4-Chlorothiophen-2-yl)-2-methoxy-5-(1H-1,2,4-triazol-1-ylmethyl)pyridine], which EC50 is on record?
Its EC50 is 100 to 1000 nM.

Which EC50 does the source give for `COc1ncc(Cn2cnc(C)n2)cc1-c1cccc(Cl)c1` [Example 143, 3-(3-Chlorophenyl)-2-methoxy-5-[(3-methyl-1H-1,2,4-triazol-1-yl)methyl]pyridine] here?
The EC50 was < 100 nM.

`COc1ncc(Cn2cncn2)cc1-c1cccc(C(F)F)c1` [Example 144, 3-[3-(Difluoromethyl)phenyl]-2-methoxy-5-(1H-1,2,4-triazol-1-ylmethyl)pyridine] was tested. Which EC50 did it give?
The EC50 was < 100 nM.

With `COc1ncc(Cn2cccn2)cc1-c1cccc(Cl)c1` [Example 145, 3-(3-Chlorophenyl)-2-methoxy-5-(1H-pyrazol-1-ylmethyl)pyridine] as the compound, how does the EC50 read?
Its EC50 is < 100 nM.

With `COc1ncc(Cn2cnc(C(F)(F)F)n2)cc1-c1cccc(Cl)c1` [Example 146, 3-(3-Chlorophenyl)-2-methoxy-5-{[3-(trifluoromethyl)-1H-1,2,4-triazol-1-yl]methyl}pyridine] as the compound, how does the EC50 read?
Its EC50 is 100 to 1000 nM.

`COc1ncc(Cn2cnc(C3CC3)n2)cc1-c1cccc(Cl)c1` [Example 147, 3-(3-Chlorophenyl)-5-[(3-Cyclopropyl-1H-1,2,4-triazol-1-yl)methyl]-2-methoxypyridine] was tested. Which EC50 did it give?
Its EC50 is 100 to 1000 nM.

For `Cc1ncn(Cc2cnc(OC(F)F)c(-c3cccc(Cl)c3)c2)n1` [Example 148, 3-(3-Chlorophenyl)-2-(difluoromethoxy)-5-[(3-methyl-1H-1,2,4-triazol-1-yl)methyl]pyridine], which EC50 is on record?
Its EC50 is < 100 nM.

`COc1ncc(Cn2cnc(C(F)(F)F)c2)cc1-c1cccc(Cl)c1` [Example 149, 3-(3-Chlorophenyl)-2-methoxy-5-{[4-(trifluoromethyl)-1H-imidazol-1-yl]methyl}pyridine] was tested. Which EC50 did it give?
Its EC50 is 1000 to 10000 nM.

How did the EC50 turn out when `CC(c1cnc(OC(F)F)c(-c2cccc(Cl)c2)c1)n1cncn1` (stereo not shown) [Example 150, 3-(3-Chlorophenyl)-2-(difluoromethoxy)-5-[1-(1H-1,2,4-triazol-1-yl)ethyl]pyridine] was run?
Its EC50 is 100 to 1000 nM.

How did the EC50 turn out when `COc1ncc(Cn2cnc(C)n2)cc1-c1cccc(F)c1` [Example 151, 3-(3-Fluorophenyl)-2-methoxy-5-[(3-methyl-1H-1,2,4-triazol-1-yl)methyl]pyridine] was run?
Its EC50 is < 100 nM.

For `CCOc1ncc(Cn2cnc(C(F)(F)F)n2)cc1-c1cccc(Cl)c1` [Example 152, 3-(3-Chlorophenyl)-2-ethoxy-5-{[3-(trifluoromethyl)-1H-1,2,4-triazol-1-yl]methyl}pyridine], which EC50 is on record?
Its EC50 is 100 to 1000 nM.

For `CCOc1ncc(Cn2ncnc2C(F)(F)F)cc1-c1cccc(Cl)c1` [Example 153, 3-(3-Chlorophenyl)-2-ethoxy-5-{[5-(trifluoromethyl)-1H-1,2,4-triazol-1-yl]methyl}pyridine], which EC50 is on record?
Its EC50 is < 100 nM.

`Cc1cn(Cc2cnc(OC(F)F)c(-c3cccc(Cl)c3)c2)cn1` [Example 154, 3-(3-Chlorophenyl)-2-(difluoromethoxy)-5-[(4-methyl-1H-imidazol-1-yl)methyl]pyridine] was tested. Which EC50 did it give?
Its EC50 is 100 to 1000 nM.

`COc1ncc(Cn2cnc(C)n2)cc1-c1cccc(OC(F)F)c1` [Example 155, 3-[3-(Difluoromethoxy)phenyl]-2-methoxy-5-[(3-methyl-1H-1,2,4-triazol-1-yl)methyl]pyridine] was tested. Which EC50 did it give?
The EC50 was < 100 nM.

For `N#Cc1ncn(Cc2cnc(OC(F)F)c(-c3cccc(Cl)c3)c2)n1` [Example 156, 1-{[5-(3-Chlorophenyl)-6-(difluoromethoxy)pyridin-3-yl]methyl}-1H-1,2,4-triazole-3-carbonitrile], which EC50 is on record?
The EC50 was 1000 to 10000 nM.

With `COCc1ncn(Cc2cnc(OC(F)F)c(-c3cccc(Cl)c3)c2)n1` [Example 157, 3-(3-Chlorophenyl)-2-(difluoromethoxy)-5-{[3-(methoxymethyl)-1H-1,2,4-triazol-1-yl]methyl}pyridine] as the compound, how does the EC50 read?
Its EC50 is 100 to 1000 nM.

For `COCc1ncnn1Cc1cnc(OC(F)F)c(-c2cccc(Cl)c2)c1` [Example 158, 3-(3-Chlorophenyl)-2-(difluoromethoxy)-5-{[5-(methoxymethyl)-1H-1,2,4-triazol-1-yl]methyl}pyridine], which EC50 is on record?
Its EC50 is 1000 to 10000 nM.

With `COc1ncc(Cn2cnc(C(F)(F)F)n2)cc1-c1cccc(OC(F)F)c1` [Example 159, 3-[3-(Difluoromethoxy)phenyl]-2-methoxy-5-{[3-(trifluoromethyl)-1H-1,2,4-triazol-1-yl]methyl}pyridine] as the compound, how does the EC50 read?
Its EC50 is 100 to 1000 nM.

How did the EC50 turn out when `COc1ncc(Cn2ncnc2C(F)(F)F)cc1-c1cccc(OC(F)F)c1` [Example 160, 3-[3-(Difluoromethoxy)phenyl]-2-methoxy-5-{[5-(trifluoromethyl)-1H-1,2,4-triazol-1-yl]methyl}pyridine] was run?
Its EC50 is 100 to 1000 nM.

Which EC50 does the source give for `FC(F)Oc1ncc(Cn2cnnn2)cc1-c1cccc(Cl)c1` [Example 161, 3-(3-Chlorophenyl)-2-(difluoromethoxy)-5-(1H-1,2,3,4-tetrazol-1-ylmethyl)pyridine] here?
The EC50 was 100 to 1000 nM.

For `FC(F)Oc1ncc(Cn2ncnn2)cc1-c1cccc(Cl)c1` [Example 162, 3-(3-Chlorophenyl)-2-(difluoromethoxy)-5-(2H-1,2,3,4-tetrazol-2-ylmethyl)pyridine], which EC50 is on record?
The EC50 was < 100 nM.

Which EC50 does the source give for `CCOc1ncc(Cn2cnc(C(F)(F)F)n2)cc1-c1cccc(OC(F)F)c1` [Example 163, 3-[3-(Difluoromethoxy)phenyl]-2-ethoxy-5-{[3-(trifluoromethyl)-1H-1,2,4-triazol-1-yl]methyl}pyridine] here?
The EC50 was < 100 nM.

`CCOc1ncc(Cn2ncnc2C(F)(F)F)cc1-c1cccc(OC(F)F)c1` [Example 164, 3-[3-(Difluoromethoxy)phenyl]-2-ethoxy-5-{[5-(trifluoromethyl)-1H-1,2,4-triazol-1-yl]methyl}pyridine] was tested. Which EC50 did it give?
Its EC50 is 100 to 1000 nM.

Which EC50 does the source give for `CCOc1ncc(Cn2cnc(COC)n2)cc1-c1cccc(OC(F)F)c1` [Example 165, 3-[3-(Difluoromethoxy)phenyl]-2-ethoxy-5-{[3-(methoxymethyl)-1H-1,2,4-triazol-1-yl]methyl}pyridine] here?
The EC50 was < 100 nM.

Which EC50 does the source give for `CCOc1ncc(Cn2ncnc2COC)cc1-c1cccc(OC(F)F)c1` [Example 166, 3-[3-(Difluoromethoxy)phenyl]-2-ethoxy-5-{[5-(methoxymethyl)-1H-1,2,4-triazol-1-yl]methyl}pyridine] here?
Its EC50 is 100 to 1000 nM.

With `COc1ncc(Cn2cc(Cl)cn2)cc1-c1cccc(OC(F)F)c1` [Example 167, 5-[(4-Chloro-1H-pyrazol-1-yl)methyl]-3-[3-(difluoromethoxy)phenyl]-2-methoxypyridine] as the compound, how does the EC50 read?
The EC50 was 100 to 1000 nM.

For `CCOc1ncc(Cn2ccc(C(N)=O)n2)cc1-c1cccc(Cl)c1` [Example 168, 1-{[5-(3-Chlorophenyl)-6-ethoxypyridin-3-yl]methyl}-1H-pyrazole-3-carboxamide], which EC50 is on record?
Its EC50 is < 100 nM.

`CCOC(=O)c1cnn(Cc2cnc(OC)c(-c3cccc(Cl)c3)c2)c1` [Example 169, Ethyl 1-{[5-(3-chlorophenyl)-6-methoxypyridin-3-yl]methyl}-1H-pyrazole-4-carboxylate] was tested. Which EC50 did it give?
Its EC50 is 1000 to 10000 nM.

Which EC50 does the source give for `COc1ncc(Cn2cc(C#N)cn2)cc1-c1cccc(Cl)c1` [Example 170, 1-{[5-(3-Chlorophenyl)-6-methoxypyridin-3-yl]methyl}-1H-pyrazole-4-carbonitrile] here?
Its EC50 is 100 to 1000 nM.

With `COc1ncc(Cn2cncn2)cc1-c1ccncc1` [Example 171, 2-Methoxy-3-(pyridin-4-yl)-5-(1H-1,2,4-triazol-1-ylmethyl)pyridine] as the compound, how does the EC50 read?
Its EC50 is 100 to 1000 nM.

With `COc1ncc(Cn2cc(NC(C)=O)cn2)cc1-c1cccc(Cl)c1` [Example 172, N-(1-{[5-(3-Chlorophenyl)-6-methoxypyridin-3-yl]methyl}-1H-pyrazol-4-yl)acetamide] as the compound, how does the EC50 read?
Its EC50 is 1000 to 10000 nM.

For `COc1ncc(Cn2ccnc2)cc1-c1cccc(Cl)c1` [Example 173, 3-(3-Chlorophenyl)-5-(1H-imidazol-1-ylmethyl)-2-methoxypyridine], which EC50 is on record?
The EC50 was < 100 nM.

How did the EC50 turn out when `Fc1cccc(-c2cc(Cn3cncn3)cnc2OC(F)F)c1` [Example 174, 2-(Difluoromethoxy)-3-(3-fluorophenyl)-5-(1H-1,2,4-triazol-1-ylmethyl)pyridine] was run?
The EC50 was < 100 nM.

How did the EC50 turn out when `COc1cccc(-c2cc(Cn3cncn3)cnc2OC(F)F)c1` [Example 175, 2-(Difluoromethoxy)-3-(3-methoxyphenyl)-5-(1H-1,2,4-triazol-1-ylmethyl)pyridine] was run?
Its EC50 is > 10000 nM.

For `FC(F)Oc1ncc(Cn2cncn2)cc1-c1cccc(OC(F)(F)F)c1` [Example 176, 2-(Difluoromethoxy)-5-(1H-1,2,4-triazol-1-ylmethyl)-3-[3-(trifluoromethoxy)phenyl]pyridine], which EC50 is on record?
Its EC50 is 100 to 1000 nM.

Which EC50 does the source give for `COc1ncc(Cn2ccccc2=O)cc1-c1cccc(Cl)c1` [Example 177, 1-{[5-(3-Chlorophenyl)-6-methoxypyridin-3-yl]methyl}-1,2-dihydropyridin-2-one] here?
The EC50 was 1000 to 10000 nM.

`COc1ncc(Cn2cc(Cl)cn2)cc1-c1cccc(Cl)c1` [Example 178, 5-[(4-Chloro-1H-pyrazol-1-yl)methyl]-3-(3-chlorophenyl)-2-methoxypyridine] was tested. Which EC50 did it give?
The EC50 was 100 to 1000 nM.

How did the EC50 turn out when `COc1ncc(Cn2cc(C)cn2)cc1-c1cccc(Cl)c1` [Example 179, 3-(3-Chlorophenyl)-2-methoxy-5-[(4-methyl-1H-pyrazol-1-yl)methyl]pyridine] was run?
The EC50 was 100 to 1000 nM.
